Earlier results on three compounds are cited in EP0073093A1, “4' Halo-substituted sucrose derivatives” (TATE & LYLE PUBLIC LIMITED COMPANY, priority 1981, dated 1983).

For data set [1] the following is noted: qualitative.

Regarding 2,1'-dichloro-2,1'- dideoxy derivative, the sweetness result (qualitative, prior-art sucrose derivatives) is reported as “not sweet at all”. As for “2,6,1',6'-tetrachloro-2,6,1', 6'-tetradeoxy derivative”, in data set [1] (comparable with that of quinine), the bittering power result is given as “potent bittering agent”. As to `O=C1NS(=O)(=O)c2ccccc21` [saccharin], where the note is “relative to sucrose”, the “times the sweetening power of sucrose” value is “about 200 times”. Moreover, in data set [1], the after-taste entry is given as “unpleasantly bitter after-taste”.
